From ChEMBL document CHEMBL3046568, “Synthesis, antimicrobial and DNA cleavage studies of some 4-aryloxymethylcoumarins obtained by reaction of 4-bromomethylcoumarins with bidentate nucleophiles” (2012)
Converted amounts (≈) assume the structure as drawn. The source made the active and inactive calls. The calls are words filed in the database; no cut-off is given here.

Legend:
Enterococcus faecalis = assay: Antibacterial activity against Enterococcus faecalis MTCC 3382 after 24 hr by disk diffusion method; assay type: functional; conditions: for MIC: Enterococcus faecalis, MTCC 3382, 24 h
Escherichia coli [1] = assay: Induction of Escherichia coli MTCC 1089 DNA cleavage at 25 ug after 2 hr by agarose gel electrophoresis
Aspergillus niger [2] = assay: Induction of Aspergillus niger DNA cleavage at 50 ug after 2 hr by agarose gel electrophoresis
Escherichia coli [3] = assay: Induction of Escherichia coli MTCC 1089 DNA cleavage at 50 ug after 2 hr by agarose gel electrophoresis
Staphylococcus aureus [4] = assay: Induction of Staphylococcus aureus MTCC 3160 DNA cleavage at 50 ug after 2 hr by agarose gel electrophoresis
Fusarium oxysporum = assay: Antifungal activity against Fusarium oxysporum after 3 to 4 days by serial dilution method; assay type: functional; conditions: for MIC: Fusarium oxysporum
Mucor fuscus = assay: Antifungal activity against Mucor fuscus after 3 to 4 days by serial dilution method; assay type: functional; conditions: for MIC: Mucor fuscus
Penicillium chrysogenum = assay: Antifungal activity against Penicillium chrysogenum after 3 to 4 days by serial dilution method; assay type: functional; conditions: for MIC: Penicillium chrysogenum
Aspergillus niger [5] = assay: Antifungal activity against Aspergillus niger after 3 to 4 days by serial dilution method; assay type: functional; conditions: for MIC: Aspergillus niger
Candida albicans = assay: Antifungal activity against Candida albicans after 3 to 4 days by serial dilution method; assay type: functional; conditions: for MIC: Candida albicans
Aspergillus fumigatus = assay: Antifungal activity against Aspergillus fumigatus after 3 to 4 days by serial dilution method; assay type: functional; conditions: for MIC: Aspergillus fumigatus
Escherichia coli [6] = assay: Antibacterial activity against Escherichia coli MTCC 1089 after 24 hr by disk diffusion method; assay type: functional; conditions: for MIC: Escherichia coli, MTCC 1089, 24 h
Klebsiella pneumoniae = assay: Antibacterial activity against Klebsiella pneumoniae MTCC 3384 after 24 hr by disk diffusion method; assay type: functional; conditions: for MIC: Klebsiella pneumoniae, MTCC 3384, 24 h
Pseudomonas aeruginosa = assay: Antibacterial activity against Pseudomonas aeruginosa MTCC 1034 after 24 hr by disk diffusion method; assay type: functional; conditions: for MIC: Pseudomonas aeruginosa, MTCC 1034, 24 h
Bacillus subtilis = assay: Antibacterial activity against Bacillus subtilis MTCC 297 after 24 hr by disk diffusion method; assay type: functional; conditions: for MIC: Bacillus subtilis, MTCC 297, 24 h
Staphylococcus aureus [7] = assay: Antibacterial activity against Staphylococcus aureus MTCC 3160 after 24 hr by disk diffusion method; assay type: functional; conditions: for MIC: Staphylococcus aureus, MTCC 3160, 24 h
Aspergillus niger [8] = assay: Induction of Aspergillus niger DNA cleavage at 25 ug after 2 hr by agarose gel electrophoresis
Staphylococcus aureus [9] = assay: Induction of Staphylococcus aureus MTCC 3160 DNA cleavage at 25 ug after 2 hr by agarose gel electrophoresis

Row | SMILES | MIC (Enterococcus faecalis) | Activity (Aspergillus niger [2]) | Activity (Escherichia coli [3]) | Activity (Staphylococcus aureus [4]) | MIC (Mucor fuscus) | MIC (Penicillium chrysogenum) | MIC (Aspergillus niger [5]) | MIC (Candida albicans) | MIC (Aspergillus fumigatus) | MIC (Escherichia coli [6]) | MIC (Klebsiella pneumoniae) | inhibition zone (IZ) (Enterococcus faecalis) | inhibition zone (IZ) (Fusarium oxysporum) | inhibition zone (IZ) (Mucor fuscus) | inhibition zone (IZ) (Penicillium chrysogenum) | inhibition zone (IZ) (Aspergillus niger [5]) | inhibition zone (IZ) (Candida albicans) | inhibition zone (IZ) (Aspergillus fumigatus) | inhibition zone (IZ) (Escherichia coli [6]) | inhibition zone (IZ) (Klebsiella pneumoniae) | also measured
1 | COc1ccc2oc(=O)cc(COc3cccc(NC(C)=O)c3)c2c1 | 6.25 µg/mL (≈ 18.4 µM) | Active | Active | Active | 6.25 µg/mL (≈ 18.4 µM) | 6.25 µg/mL (≈ 18.4 µM) | 6.25 µg/mL (≈ 18.4 µM) | 6.25 µg/mL (≈ 18.4 µM) | 6.25 µg/mL (≈ 18.4 µM) | 12.5 µg/mL (≈ 36.8 µM) | 6.25 µg/mL (≈ 18.4 µM) | 20 mm | 16 mm | 21 mm | 20 mm | 21 mm | 19 mm | 21 mm | 17 mm | 21 mm | Activity (Escherichia coli [1]): Active; MIC (Fusarium oxysporum): 12.5 µg/mL (≈ 36.8 µM); inhibition zone (IZ) (Pseudomonas aeruginosa): 25 mm; MIC (Pseudomonas aeruginosa): 6.25 µg/mL (≈ 18.4 µM); inhibition zone (IZ) (Bacillus subtilis): 19 mm; MIC (Bacillus subtilis): 6.25 µg/mL (≈ 18.4 µM); inhibition zone (IZ) (Staphylococcus aureus [7]): 19 mm; MIC (Staphylococcus aureus [7]): 6.25 µg/mL (≈ 18.4 µM)
2 | CCN(CC)c1cccc(OCc2cc(=O)oc3ccc(OC)cc23)c1 | 6.25 µg/mL (≈ 17.7 µM) | Active | Active | Active | 6.25 µg/mL (≈ 17.7 µM) | 6.25 µg/mL (≈ 17.7 µM) | 6.25 µg/mL (≈ 17.7 µM) | 6.25 µg/mL (≈ 17.7 µM) | 6.25 µg/mL (≈ 17.7 µM) | 12.5 µg/mL (≈ 35.4 µM) | 6.25 µg/mL (≈ 17.7 µM) | 20 mm | 15 mm | 19 mm | 23 mm | 20 mm | 17 mm | 19 mm | 17 mm | 20 mm | Activity (Escherichia coli [1]): Active; inhibition zone (IZ) (Pseudomonas aeruginosa): 25 mm; MIC (Pseudomonas aeruginosa): 6.25 µg/mL (≈ 17.7 µM); inhibition zone (IZ) (Bacillus subtilis): 18 mm; MIC (Bacillus subtilis): 6.25 µg/mL (≈ 17.7 µM); inhibition zone (IZ) (Staphylococcus aureus [7]): 20 mm; MIC (Staphylococcus aureus [7]): 6.25 µg/mL (≈ 17.7 µM)
3 | O=c1cc(COc2cccc(O)c2)c2cc(Cl)ccc2o1 | 6.25 µg/mL (≈ 20.6 µM) | Active | Active | Active | 6.25 µg/mL (≈ 20.6 µM) | 6.25 µg/mL (≈ 20.6 µM) | 6.25 µg/mL (≈ 20.6 µM) | 6.25 µg/mL (≈ 20.6 µM) | 6.25 µg/mL (≈ 20.6 µM) | 12.5 µg/mL (≈ 41.3 µM) | 6.25 µg/mL (≈ 20.6 µM) | 22 mm | 17 mm | 21 mm | 22 mm | 24 mm | 20 mm | 21 mm | 17 mm | 19 mm | Activity (Aspergillus niger [8]): Active; Activity (Staphylococcus aureus [9]): Active; MIC (Fusarium oxysporum): 12.5 µg/mL (≈ 41.3 µM); inhibition zone (IZ) (Pseudomonas aeruginosa): 24 mm; MIC (Pseudomonas aeruginosa): 6.25 µg/mL (≈ 20.6 µM); inhibition zone (IZ) (Bacillus subtilis): 20 mm; MIC (Bacillus subtilis): 6.25 µg/mL (≈ 20.6 µM); inhibition zone (IZ) (Staphylococcus aureus [7]): 21 mm; MIC (Staphylococcus aureus [7]): 6.25 µg/mL (≈ 20.6 µM)
4 | CCN(CC)c1cccc(OCc2cc(=O)oc3ccc(Cl)cc23)c1 | 6.25 µg/mL (≈ 17.5 µM) | Active | Active | Active | 6.25 µg/mL (≈ 17.5 µM) | 6.25 µg/mL (≈ 17.5 µM) | 6.25 µg/mL (≈ 17.5 µM) | 6.25 µg/mL (≈ 17.5 µM) | 6.25 µg/mL (≈ 17.5 µM) | 12.5 µg/mL (≈ 34.9 µM) | 6.25 µg/mL (≈ 17.5 µM) | 22 mm | 16 mm | 21 mm | 23 mm | 22 mm | 18 mm | 22 mm | 15 mm | 19 mm | Activity (Aspergillus niger [8]): Active; MIC (Fusarium oxysporum): 12.5 µg/mL (≈ 34.9 µM); inhibition zone (IZ) (Pseudomonas aeruginosa): 25 mm; MIC (Pseudomonas aeruginosa): 6.25 µg/mL (≈ 17.5 µM); inhibition zone (IZ) (Bacillus subtilis): 20 mm; MIC (Bacillus subtilis): 6.25 µg/mL (≈ 17.5 µM); inhibition zone (IZ) (Staphylococcus aureus [7]): 21 mm; MIC (Staphylococcus aureus [7]): 6.25 µg/mL (≈ 17.5 µM)

Continued, in another order:

Row | MIC (Enterococcus faecalis) | Activity (Aspergillus niger [2]) | Activity (Escherichia coli [3]) | Activity (Staphylococcus aureus [4]) | MIC (Mucor fuscus) | MIC (Penicillium chrysogenum) | MIC (Aspergillus niger [5]) | MIC (Candida albicans) | MIC (Aspergillus fumigatus) | MIC (Escherichia coli [6]) | MIC (Klebsiella pneumoniae) | SMILES | inhibition zone (IZ) (Enterococcus faecalis) | inhibition zone (IZ) (Fusarium oxysporum) | inhibition zone (IZ) (Mucor fuscus) | inhibition zone (IZ) (Penicillium chrysogenum) | inhibition zone (IZ) (Aspergillus niger [5]) | inhibition zone (IZ) (Candida albicans) | inhibition zone (IZ) (Aspergillus fumigatus) | inhibition zone (IZ) (Escherichia coli [6]) | inhibition zone (IZ) (Klebsiella pneumoniae) | also measured
5 | 6.25 µg/mL (≈ 12.6 µM) | Active | Active | Active | 6.25 µg/mL (≈ 12.6 µM) | 6.25 µg/mL (≈ 12.6 µM) | 6.25 µg/mL (≈ 12.6 µM) | 6.25 µg/mL (≈ 12.6 µM) | 6.25 µg/mL (≈ 12.6 µM) | 12.5 µg/mL (≈ 25.2 µM) | 6.25 µg/mL (≈ 12.6 µM) | O=c1cc(COc2cccc(OCc3cc(=O)oc4ccc(Cl)cc34)c2)c2cc(Cl)ccc2o1 | 23 mm | 16 mm | 22 mm | 20 mm | 24 mm | 19 mm | 22 mm | 15 mm | 18 mm | Activity (Aspergillus niger [8]): Active; MIC (Fusarium oxysporum): 12.5 µg/mL (≈ 25.2 µM); inhibition zone (IZ) (Pseudomonas aeruginosa): 22 mm; MIC (Pseudomonas aeruginosa): 6.25 µg/mL (≈ 12.6 µM); inhibition zone (IZ) (Bacillus subtilis): 19 mm; MIC (Bacillus subtilis): 6.25 µg/mL (≈ 12.6 µM); inhibition zone (IZ) (Staphylococcus aureus [7]): 20 mm; MIC (Staphylococcus aureus [7]): 6.25 µg/mL (≈ 12.6 µM)
6 | 6.25 µg/mL (≈ 21 µM) | Active | Active | Active | 6.25 µg/mL (≈ 21 µM) | 6.25 µg/mL (≈ 21 µM) | 6.25 µg/mL (≈ 21 µM) | 6.25 µg/mL (≈ 21 µM) | 12.5 µg/mL (≈ 41.9 µM) | 12.5 µg/mL (≈ 41.9 µM) | 6.25 µg/mL (≈ 21 µM) | COc1ccc2oc(=O)cc(COc3cccc(O)c3)c2c1 | 21 mm | 16 mm | 19 mm | 20 mm | 20 mm | 19 mm | 17 mm | 18 mm | 21 mm | Activity (Escherichia coli [1]): Active; MIC (Fusarium oxysporum): 12.5 µg/mL (≈ 41.9 µM); inhibition zone (IZ) (Pseudomonas aeruginosa): 25 mm; MIC (Pseudomonas aeruginosa): 6.25 µg/mL (≈ 21 µM); inhibition zone (IZ) (Bacillus subtilis): 18 mm; MIC (Bacillus subtilis): 6.25 µg/mL (≈ 21 µM); inhibition zone (IZ) (Staphylococcus aureus [7]): 20 mm; MIC (Staphylococcus aureus [7]): 6.25 µg/mL (≈ 21 µM)
7 | 6.25 µg/mL (≈ 12.8 µM) | Active | Active | Active | 6.25 µg/mL (≈ 12.8 µM) | 12.5 µg/mL (≈ 25.7 µM) | 12.5 µg/mL (≈ 25.7 µM) | 6.25 µg/mL (≈ 12.8 µM) | 12.5 µg/mL (≈ 25.7 µM) | 12.5 µg/mL (≈ 25.7 µM) | 6.25 µg/mL (≈ 12.8 µM) | COc1ccc2oc(=O)cc(COc3cccc(OCc4cc(=O)oc5ccc(OC)cc45)c3)c2c1 | 21 mm | 15 mm | 20 mm | 17 mm | 18 mm | 17 mm | 18 mm | 17 mm | 20 mm | Activity (Escherichia coli [1]): Active; MIC (Fusarium oxysporum): 12.5 µg/mL (≈ 25.7 µM); inhibition zone (IZ) (Pseudomonas aeruginosa): 24 mm; MIC (Pseudomonas aeruginosa): 6.25 µg/mL (≈ 12.8 µM); inhibition zone (IZ) (Bacillus subtilis): 18 mm; MIC (Bacillus subtilis): 6.25 µg/mL (≈ 12.8 µM); inhibition zone (IZ) (Staphylococcus aureus [7]): 19 mm; MIC (Staphylococcus aureus [7]): 6.25 µg/mL (≈ 12.8 µM)
